According to PubChem BioAssay AID1902 (Broad Institute, 2009):
The source made the active and inactive calls.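 Rule for the calls: active = EC50 no more than a set limit of log units above the highest dose; inactive = the rest.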

Target: S. pyogenes SKKanGAS, kanamycin survival, BacTiterGlo, 6 h
Test: S. pyogenes SKKanGAS kanamycin growth inhibitors – SKKanGAS strain, luminescence, dose confirmation, streptokinase promoter inhibitor project, dose response (AID 1902);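 note: lower survival reflects blocked streptokinase promoter driving kanamycin resistance gene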

Row | Structure (SMILES) | EC50
1 | COCCn1c(N)c(C(=O)Nc2sc3c(c2C(=O)OC)CCCC3)c2nc3ccccc3nc21 | 4.57 µM
2 | Cc1cc(C)cc(C(=O)N2CCC(CCC(=O)NC3CC3)CC2)c1 | > 15 µM (inactive)
3 | O=[N+]([O-])c1cc(C(F)(F)F)cc([N+](=O)[O-])c1NCCNC(=S)Nc1ccc(Cl)c(Cl)c1 | 1.12 µM
4 | O=C(NNc1ccccc1Cl)C(O)(c1cccc(C(F)(F)F)c1)c1cccc(C(F)(F)F)c1 | 2.61 µM
5 | C/C(=C\C(=O)OCCCCCCCCC(=O)O)C[C@@H]1OC[C@H](C[C@@H]2O[C@H]2[C@@H](C)[C@H](C)O)[C@@H](O)[C@H]1O | < 0.06 µM
6 | Cc1ccc(C2C(/C=C3/SC(=S)NC3=O)=C(c3cccs3)Oc3ccccc32)cc1 (stereo unspecified) | 0.643 µM
7 | CN(C)CCCn1c(SCC(=O)Nc2nc(-c3cccc(Br)c3)cs2)nc2ccccc2c1=O | 4.73 µM
8 | CCOC(=O)c1ccc(NC(=O)c2nc[nH]c2C(=O)N[C@@H](Cc2ccccc2)C(=O)OC(C)(C)C)cc1 | 3.17 µM
9 | c1ccc(-c2noc(-c3ccccc3-c3ccccc3)n2)cc1 | 3.7 µM
10 | Cc1ccc(-c2cc(-c3cccc(F)c3)n[nH]2)c(O)c1 | 4.32 µM
11 | CC(=O)Oc1c(I)cc(I)cc1C(=O)Nc1ccc(Cl)cc1 | 0.394 µM
12 | S=C1NC(C23CC4CC(CC(C4)C2)C3)=CC(c2ccc3c(c2)OCO3)N1 (stereo unspecified) | 6.76 µM
13 | O=C(Nc1ccc(OC(F)(F)F)cc1)C1CCCN(S(=O)(=O)c2cnc[nH]2)C1 (stereo unspecified) | > 15 µM (inactive)
14 | Cc1cnc(NC(=O)c2cc3c(C)nn(-c4ccccc4)c3s2)s1 | 0.831 µM
15 | O=C(NNC(=O)c1cc(-c2ccc(Cl)cc2)nc2ccccc12)c1csc(N2CCOCC2)n1 | 3.78 µM
16 | Cc1ccc2nc(Nc3nc(-c4ccccc4)cc(=O)[nH]3)nc(C)c2c1 | 2.64 µM
17 | c1ccc2c(c1)ncn2CCCOc1ccc2c(c1)CCC2 | 7.49 µM
18 | Cc1ccccc1C(=O)Nc1scc(-c2ccc(Br)cc2)c1C(=O)O | 1.82 µM
19 | CC(=O)c1cccc2c(O)c(C3=Nc4ccccc4C3=O)[nH]c12 | 6.32 µM
20 | COc1ccccc1/C=N\Nc1cc(C)nc(-n2nc(C)cc2C)n1 | 6.26 µM
21 | C/C(=N/NC(=O)c1cccs1)c1c(C)[nH]n(-c2nc3ccccc3s2)c1=O | 3.24 µM
22 | O=C(CSc1ccccn1)Nc1nonc1[N+](=O)[O-] | 7.31 µM
23 | O=C(CN1C(=O)COc2ccc(S(=O)(=O)N3CCCCC3)cc21)NCc1ccc(F)cc1 | > 15 µM (inactive)
24 | C/C(=N/Nc1nc(-c2ccccc2F)nc2ccccc12)c1ccccc1O | 8.27 µM
25 | O=C(NC(=S)Nc1ccccc1N1CCCCC1)c1ccc(F)cc1Cl | 3.4 µM
26 | CSc1nc(Oc2ccc3ccccc3c2)c2sccc2n1 | 7.58 µM

Row | Structure (SMILES) | EC50
27 | O=C(Nc1nc(-c2ccccn2)cs1)c1ccc(S(=O)(=O)N2CCCCC2)cc1 | 1.48 µM
28 | CCN1CCN(C(=O)N[C@@H](C(=O)N[C@@H]2C(=O)N3[C@@H]2SC(C)(C)[C@@H]3C(=O)O)c2ccccc2)C(=O)C1=O | 0.285 µM
29 | CCCN(CCC)c1nc(-c2ccccn2)nc2ccccc12 | 0.074 µM
30 | CSc1nc(SCC(=O)O)c2sc3nc(-c4ccccc4)c4c(c3c2n1)CCC4 | 1.14 µM
31 | Cc1cc(C)cc(-n2c(C)cc(/C=C3\C(=N)N4N=C(CC(C)C)SC4=NC3=O)c2C)c1 | 2.67 µM
32 | Oc1[nH]c2ccc(Br)cc2c1N=NC(=S)N1CCOCC1 | 0.108 µM
33 | Cc1cccc2nc(COc3ccc4ccccc4c3Br)cn12 | 4.94 µM
34 | CC/C(=C(\c1ccccc1)c1ccc(OCCN(C)C)cc1)c1ccccc1 | 6.17 µM
35 | O=C(Cn1sc2ccccc2c1=O)NC12CC3CC(CC(C3)C1)C2 | 1.12 µM
36 | Cc1ccc(OP(=O)(Nc2cccc(C)c2)Oc2ccc(C)cc2)cc1 | 9.09 µM
37 | OC(CNCC1CCCO1)Cn1c2ccc(Br)cc2c2cc(Br)ccc21 (stereo unspecified) | 3.47 µM
38 | COc1ccc(NP(=O)(Oc2ccc(Cl)cc2)Oc2ccc(Cl)cc2)cc1OC | 7.25 µM
39 | COc1ccc(C(=O)N2CCCC(Nc3ccc(C)c(C)c3)C2)cc1F (stereo unspecified) | > 15 µM (inactive)
40 | Clc1ccc(COn2c(-c3ccc(Cl)cc3)nc3ccccc32)cc1 | 6.12 µM
41 | O=C(NNC(=O)c1ccccc1OCc1ccc(F)cc1)c1ccccc1O | 2.5 µM
42 | Cc1noc(C)c1CSc1nc2ccccc2nc1NS(=O)(=O)c1ccc(Cl)cc1 | 3.13 µM
43 | O=C(O)CCCN1C(=O)/C(=C/c2cn(-c3ccccc3)nc2-c2cccs2)SC1=S | 2.72 µM
44 | COc1ccc(C2CC(O)(c3ccccc3)Oc3c(C)ccc(C)c32)cc1 (stereo unspecified) | > 15 µM (inactive)
45 | Fc1ccc(CSc2ncnc3sc4c(c23)CCCC4)cc1 | 3.97 µM
46 | CC(C)(C)c1ccc(OCC(=O)Nc2ccc(C(=O)Nc3ccccc3C(=O)O)cc2)cc1 | 1.54 µM
47 | CC(C)=CCc1c2c(c3occ(-c4ccc(O)cc4)c(=O)c3c1O)C=CC(C)(C)O2 | 0.876 µM
48 | NNC(=O)CSc1nc(-c2ccccc2)nc2c1CCCC2 | > 15 µM (inactive)
49 | CCOC(=O)N1CCN(C(=O)c2ccc3c(c2)NC(=O)/C(=C\c2ccc(OC)c(OC)c2)S3)CC1 | 1.1 µM
50 | CCOC(=O)C1=C(Cc2ccc(C)cc2)C(=O)c2ccccc2C1=O | 4.64 µM
51 | COc1ccc(-c2cc3nc[nH]c(=O)c3s2)cc1 | 8.36 µM
